From patent publication US20080025960A1, “Detergents with stabilized enzyme systems” (priority 2006, published 2008)

Tests used:
glucose oxidase = target: T1, glucose oxidase (Aspergillus niger, UniProt P13006); assay: Premature hydrogen peroxide generation by glucose oxidase in control buffer or AATCC liquid detergent stock (as is) with glucose and inhibitor, dipsticks; assay type: biochemical; conditions: for Hydrogen Peroxide Generation, PPM H2O2: T = 0+, 500 PPM oxidase; for Hydrogen Peroxide Generation, PPM H2O2 / hydrogen peroxide production / H2O2 generated: as is; for Hydrogen Peroxide Generation, PPM H2O2 / premature hydrogen peroxide generation / H2O2 PPM: 500 mM glucose; for premature hydrogen peroxide generation: liquid detergent formulation, 500 PPM glucose oxidase, over 21 days; for H2O2 PPM: T = 0+, 12, 30, as is, 500 PPM enzyme, 100 mM sodium metabisulfite; for H2O2 generated: time 0+
T1 construct: purchased Genencor OXYGO L-5000
T1 sequence (P13006 17-605): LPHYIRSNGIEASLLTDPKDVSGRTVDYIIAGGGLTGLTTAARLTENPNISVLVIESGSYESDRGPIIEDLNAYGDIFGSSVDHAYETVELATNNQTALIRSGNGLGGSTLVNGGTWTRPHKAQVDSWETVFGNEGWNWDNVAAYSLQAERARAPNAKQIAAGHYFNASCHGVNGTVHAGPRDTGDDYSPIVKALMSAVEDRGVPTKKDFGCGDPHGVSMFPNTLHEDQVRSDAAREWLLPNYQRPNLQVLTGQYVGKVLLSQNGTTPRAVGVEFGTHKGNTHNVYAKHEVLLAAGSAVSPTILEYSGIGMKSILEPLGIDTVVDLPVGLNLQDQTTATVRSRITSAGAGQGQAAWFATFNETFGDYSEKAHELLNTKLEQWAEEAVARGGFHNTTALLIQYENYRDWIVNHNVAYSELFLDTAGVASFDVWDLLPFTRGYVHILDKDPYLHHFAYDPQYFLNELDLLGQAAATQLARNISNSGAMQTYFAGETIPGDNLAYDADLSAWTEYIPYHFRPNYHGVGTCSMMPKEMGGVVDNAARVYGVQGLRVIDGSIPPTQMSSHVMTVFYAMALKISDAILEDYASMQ
Text: In this Example, experiments conducted to assess the stabilization of glucose oxidase in the presence of its substrate (i.e., glucose) and an inhibitor (i.e., sodium hydrogen sulfite) is described. In these experiments, AATCC standard detergent (American Association of Textile Chemists and Colorists Heavy Duty Liquid detergent version 2003 without brightener; key components include linear alkane sulfonate, alcohol ethoxylate, propanediol, citric acid, fatty acid, castic soda and water; purchased from TestFabrics) was used.
In these experiments, 100 mM Tris pH 8.3, with 0.005% TWEEN®-100 surfactant used as a positive control. […] Three two-ml tubes were weighed with 0.990 g of AATCC detergent (lot # 01282004) and another three tubes with 0.990 g of control buffer. Then, 90 mg (500 mM) of glucose substrate were added to all of the tubes. Next, 100, 50, and 10 mM sodium hydrogen sulfite (MW 106.1) were added to each tube respectively, including the control buffer and AATCC detergent control. All of the tubes were placed on a rotary plate for an hour to allow good mixing and solubilization of glucose into the detergent. Then, 500 PPM (0.5 mg, 14.88 ul) glucose oxidase (OXYGO™ L-5000, 5379 U/ml; 33.6 mg/ml; Genencor) was added to six 2-ml tubes (three with glucose/bisulfite containing control buffers and three with glucose/bisulfite containing AATCC detergent). All of the tubes were then set on the rotary plate (60 rpm) at room temperature. Hydrogen peroxide production was measured using dipsticks (peroxidase/ABTS—Baker Testrips;Baker) at various times—t=0+minutes, 12 minutes, and 30 minutes. The tube containing 100 mM bisulfite with glucose, glucose oxidase in liquid detergent was further monitored for premature generation of hydrogen peroxide further over a period of time starting at 1 hr, 12 hr, 7 days, 12 days and up to 21 days.
In these experiments, 100 mM Tris pH 8.3, with 0.005% TWEEN®-100 surfactant was used as a positive control. […] Three two-ml tubes were weighed with 0.990 g of AATCC detergent (lot # 01282004) and another three tubes with 0.990 g of control buffer.
Three two-ml tubes containing 0.990 g of AATCC detergent (lot # 01282004) and another three tubes with 0.990 g of control buffer were weighed. Then, 90 mg (500 mM) glucose substrate was added to each tube. Then, 100, 50, and 10 mM sodium metabisulfite were added to each tube respectively (i.e., both control buffer and AATCC detergent-containing tubes). All of the tubes were placed on a rotary plate for an hour to allow good mixing and solubilization of glucose into the detergent. Next, 500 PPM (0.5 mg, 14.88 ul) glucose oxidase (OXYGO™ L-5000, 5379 U/ml; 33.6 mg/ml; Genencor) was added to six 2-ml tubes (three with glucose/metabisulfite containing control buffers and three with glucose/metabisulfite containing AATCC detergent). All of the tubes were then set on the rotary plate (60 rpm) at room temperature. H2O2 production was measured using dipsticks (peroxidase/ABTS), as described in Examples 1 and 2, for t=0+ minutes, 12 minutes, and 30 minutes. The tube containing 100 mM bisulfite with glucose, glucose oxidase in liquid detergent was further monitored for premature generation of hydrogen peroxide further over a period of time starting at 1 hr, 12 hr, 7 days, 12 days and up to 21 days.

alcohol oxidase [1] = target: T2, alcohol oxidase (Pichia angusta, UniProt P04841); assay: Hydrogen peroxide concentration in control buffer or AATCC liquid detergent stock (as is) with alcohol oxidase, ethanol and inhibitor; assay type: biochemical, Hansunela sp.; conditions: for character of alcohol oxidase inhibition: 100 mM concentration tested; for premature generation of H2O2 in AATCC detergent stock / H2O2 PPM: 100 mM inhibitor; for premature generation of H2O2 in AATCC detergent stock: period of investigation 120 minutes; for H2O2 PPM: as is, 1 M ethanol, 10U enzyme
T2 construct: purchased Sigma
T2 sequence (P04841 whole entry): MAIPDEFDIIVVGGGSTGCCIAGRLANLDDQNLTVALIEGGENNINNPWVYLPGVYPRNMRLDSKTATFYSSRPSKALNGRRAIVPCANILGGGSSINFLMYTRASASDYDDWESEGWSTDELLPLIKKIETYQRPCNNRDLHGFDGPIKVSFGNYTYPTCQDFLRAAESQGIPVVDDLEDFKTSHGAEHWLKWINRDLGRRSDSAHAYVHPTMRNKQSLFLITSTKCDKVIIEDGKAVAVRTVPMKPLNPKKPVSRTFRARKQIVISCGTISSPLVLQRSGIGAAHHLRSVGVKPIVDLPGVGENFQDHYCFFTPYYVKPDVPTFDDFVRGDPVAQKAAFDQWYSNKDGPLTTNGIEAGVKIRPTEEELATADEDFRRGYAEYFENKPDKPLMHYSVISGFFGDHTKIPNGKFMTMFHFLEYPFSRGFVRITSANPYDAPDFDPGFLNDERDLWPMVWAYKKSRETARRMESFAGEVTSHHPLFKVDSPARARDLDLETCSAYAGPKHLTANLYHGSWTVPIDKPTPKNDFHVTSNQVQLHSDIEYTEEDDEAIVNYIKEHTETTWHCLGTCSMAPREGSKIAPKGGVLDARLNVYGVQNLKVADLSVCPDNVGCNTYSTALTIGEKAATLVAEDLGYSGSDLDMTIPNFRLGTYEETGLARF
Procedure: In these experiments, the stability of alcohol oxidase obtained from Hansunela sp., (100 U/ml. 22 U/mg, 13 mg total solid in vial, 7.7 U/mg solid; Sigma) in AATCC liquid detergent was tested. In these experiments, 10 U of the alcohol oxidase were used in liquid detergent stock for each experiment. For testing, 1M ethanol was mixed into the detergent (46 mg ethanol in 990 mg detergent). […] The experiments were conducted as described above in Examples 1 and 3.

alcohol oxidase [2] = target: T2, alcohol oxidase; assay: Hydrogen peroxide concentration in wash liquor with alcohol oxidase, ethanol and inhibitor; assay type: biochemical, Hansunela sp.; conditions: 2 mM ethanol, 0.02U enzyme, 0.2 mM inhibitor
Procedure: The stability and activity of the alcohol oxidase enzyme (described in Example 5) in AATCC liquid detergent (Sigma, 100 U/ml. 22 U/mg, 13 mg total solid in vial, 7.7 U/mg solid) was tested upon dilution into wash liquor. In these experiments, 10 U of alcohol oxidase were used in liquid detergent stock for each experiment. In addition, 1M ethanol (substrate) was mixed in detergent (46 mg ethanol in 990 mg detergent). […] In these experiments, 10 ul of final detergent mix or control mix were added to 5 ml of wash liquor. The same methods as described in Examples 2 and 4 were used in these experiments.

Compound	character of alcohol oxidase inhibition (alcohol oxidase [1])	premature generation of H2O2 in AATCC detergent stock (alcohol oxidase [1])	H2O2 PPM (alcohol oxidase [1]; AATCC Detergent, T = 0+) [PPM]	H2O2 PPM (alcohol oxidase [1]; AATCC Detergent, T = 12 min) [PPM]	H2O2 PPM (alcohol oxidase [1]; AATCC Detergent, T = 30 min) [PPM]	H2O2 PPM (alcohol oxidase [1]; AATCC Detergent, T = 120 min)	H2O2 PPM (alcohol oxidase [1]; Control Buffer, T = 0+) [PPM]	H2O2 PPM (alcohol oxidase [1]; Control Buffer, T = 12 min) [PPM]	H2O2 PPM (alcohol oxidase [1]; Control Buffer, T = 30 min) [PPM]	H2O2 PPM (alcohol oxidase [1]; Control Buffer, T = 120 min) [PPM]	H2O2 PPM (alcohol oxidase [2]; AATCC Detergent, T = 12 min) [PPM]	H2O2 PPM (alcohol oxidase [2]; AATCC Detergent, T = 30 min) [PPM]	H2O2 PPM (alcohol oxidase [2]; AATCC Detergent, T = 120 min)	H2O2 PPM (alcohol oxidase [2]; Control Buffer, T = 0+) [PPM]	H2O2 PPM (alcohol oxidase [2]; Control Buffer, T = 12 min) [PPM]	H2O2 PPM (alcohol oxidase [2]; Control Buffer, T = 30 min) [PPM]	H2O2 PPM (alcohol oxidase [2]; Control Buffer, T = 120 min)	other results
O=S([O-])O.[Na+] [bisulfite, sodium hydrogen sulfite]	reversible inhibitors	able to stop premature generation of H2O2	0	0	0	0, PPM	0	0	0	0	0	0	>3 (hydrogen sulfite) PPM	0	0	0	1 (hydrogen sulfite) PPM	Hydrogen Peroxide Generation, PPM H2O2 (glucose oxidase; AATCC Detergent, 10 mM bisulfite): >10 PPM; Hydrogen Peroxide Generation, PPM H2O2 (glucose oxidase; AATCC Detergent, 50 mM bisulfite): 10 PPM; Hydrogen Peroxide Generation, PPM H2O2 (glucose oxidase; AATCC Detergent, 100 mM bisulfite): 0 PPM; Hydrogen Peroxide Generation, PPM H2O2 (glucose oxidase; Control Buffer, 10 mM bisulfite): 1 PPM; Hydrogen Peroxide Generation, PPM H2O2 (glucose oxidase; Control Buffer, 50 mM bisulfite): 0 PPM; Hydrogen Peroxide Generation, PPM H2O2 (glucose oxidase; Control Buffer, 100 mM bisulfite): 0 PPM; hydrogen peroxide production (glucose oxidase; Example 3 (metabisulfite), buffer control mixture, 50 mM, various time periods tested): did not produce any hydrogen peroxide; hydrogen peroxide production (glucose oxidase; Example 3 (metabisulfite), buffer control mixture, 100 mM, time periods tested): did not produce any hydrogen peroxide; hydrogen peroxide production (glucose oxidase; buffer control mixture, 50 mM bisulfite, various time periods tested): did not produce any hydrogen peroxide; hydrogen peroxide production (glucose oxidase; buffer control mixture, 100 mM bisulfite, time periods tested): did not produce any hydrogen peroxide; premature hydrogen peroxide generation (glucose oxidase; 100 mM sodium hydrogen sulfite): no premature hydrogen peroxide generation was observed; H2O2 PPM (alcohol oxidase [2]; AATCC Detergent, T = 0+): 0 PPM
O=S([O-])S(=O)(=O)[O-].[Na+].[Na+] [sodium metabisulfite]	reversible inhibitors	able to stop premature generation of H2O2	0	0	0	0, PPM	0	0	0	0	0	0	1 (metabisulfite) PPM	0	0	0	0 (metabisulfite) PPM	H2O2 PPM (glucose oxidase; AATCC Detergent): 0 PPM; H2O2 PPM (glucose oxidase; Control Buffer): 0 PPM; H2O2 generated (glucose oxidase; buffer control mixture, 10 mM metabisulfite): 1 PPM; H2O2 generated (glucose oxidase; detergent mixture, 10 mM metabisulfite): > 10 PPM; H2O2 generated (glucose oxidase; detergent mixture, 50 mM metabisulfite): > 10 PPM; premature hydrogen peroxide generation (glucose oxidase; 100 mM inhibitor): no premature hydrogen peroxide generation was observed
